Data: patent publication US8323252B2, “Method of treating skin ulcers using oxidative reductive potential water solution” (priority 2005, dated 2012)
Where two headings read alike, the source gives them in different places.

What was measured:
8-OHdG adducts in HDFs = details: human, 30 min, 500 μM
Protocol: DNA was extracted right after the exposure (T0, white bars) or three hours after the challenge period (T3, black bars). DNA was digested and the 8-OHdG adducts were measured by ELISA kit as per the manufacturer's instructions. Values are shown (ng/mL) as mean±SD (n=3).

primary HDF cultures = details: human, 1 month, 5 μM
[1] = tested on: murine polychromatic erythrocytes; details: for PCE/NCE ratio: cyclophosphamide 8 mg/mL, 12.5 ml/kg i.p. on day 2
Protocol: The mammalian in vivo micronucleus test is used for the identification of substances which cause damage to chromosomes or the mitotic apparatus of murine polychromatic erythrocytes. This damage results in the formation of “micronuclei,” intracellular structures containing lagging chromosome fragments or isolated whole chromosomes. […] The positive control mice received a single intraperitoneal injection of cyclophosphamide (8 mg/mL, 12.5 ml/kg) on day 2. All mice were observed immediately after injection for any adverse reactions. […] On day 3, all mice were weighed and terminated.
The femurs were excised from the terminated mice, the bone marrow was extracted, and duplicate smear preparations were performed for each mouse. The bone marrow slides for each animal were read at 40× magnification. The ratio of polychromatic erythrocytes (PCE) to normochromatic erythrocytes (NCE), an index of bone marrow toxicity, was determined for each mouse by counting a total of at least 200 erythrocytes. Then a minimum of 2000 scoreable PCE per mouse were evaluated for the incidence of micronucleated polychromatic erythrocytes. Statistical analysis of the data were done using the Mann and Whitney test (at 5% risk threshold) from a statistical software package (Statview 5.0, SAS Institute Inc., USA).

| SMILES | increase of 8-OHdG adducts relative to control-treated or ORP water solution-treated cells (8-OHdG adducts in HDFs) | cells with increased SA-β-Gal expression (primary HDF cultures) | PCE/NCE ratio ([1]; females) | number of polychromatic erythrocytes bearing micronuclei ([1]; males, ORP water solution = Microcyn 10%, 12.5 ml/kg i.p.) | PCE/NCE ratio ([1]; males) |
| --- | --- | --- | --- | --- | --- |
| OO [HP, hydrogen peroxide] | about 25 fold | 86% |  |  |  |
| O=P1(N(CCCl)CCCl)NCCCO1 (centres unmarked) [cyclophosphamide] |  |  | 0.73 | 11.0 | 0.77 |
